Patent US10750743B2, “Pyridazinone herbicides” (E.I. DU PONT DE NEMOURS AND COMPANY, priority 2015, dated 2020)

Assays:
Assay type in all cases: in vivo
[1] = tested on: ducksalad (Heteranthera limosa); test: Test B flooded paddy test, visual rating; settings: Flood, 250 g ai/ha, applied to paddy water, rated after 13 to 15 d
How it was run: (§1)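 Plants at the 2-leaf stage were flooded to 3 cm above soil, and test compounds were applied directly into the paddy water, which was held at that depth throughout. After 13 to 15 d in a greenhouse, injury was rated visually against untreated controls on a 0–100 scale (0 no effect, 100 complete control).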

rice (Oryza sativa) = test: Test B flooded paddy test, visual rating; settings: Flood, 250 g ai/ha, applied to paddy water, rated after 13 to 15 d
How it was run: as §1

[2] = tested on: sedge, umbrella (small-flower umbrella sedge, Cyperus difformis); test: Test B flooded paddy test, visual rating; settings: Flood, 250 g ai/ha, applied to paddy water, rated after 13 to 15 d
How it was run: as §1

[3] = tested on: barnyardgrass (Echinochloa crus-galli); test: Test B flooded paddy test, visual rating; settings: Flood, 250 g ai/ha, applied to paddy water, rated after 13 to 15 d
How it was run: as §1

kochia (Kochia scoparia) [4] = test: Test A preemergence, directed soil spray, visual injury rating; settings: 0 is no effect, 100 is complete control
How it was run: (§2)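 Seeds sown in a loam soil–sand blend received a directed preemergence soil spray of test chemical in a non-phytotoxic solvent mixture with surfactant. Postemergence plants were sprayed at 2 to 10 cm, one- to two-leaf stage. After approximately 10 d in greenhouse, injury was visually rated 0 (no effect) to 100 (complete control) against untreated controls.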

[5] = tested on: ryegrass, It. (Italian ryegrass, Lolium multiflorum); test: as above; settings: 0 is no effect, 100 is complete control
How it was run: as §2

[6] = tested on: pigweed (Amaranthus retroflexus); test: as above; settings: 0 is no effect, 100 is complete control
How it was run: as §2

[7] = tested on: barnyardgrass (Echinochloa crus-galli); test: as above; settings: 0 is no effect, 100 is complete control
How it was run: as §2

[8] = tested on: foxtail, giant (giant foxtail, Setaria faberii); test: as above; settings: 0 is no effect, 100 is complete control
How it was run: as §2

[9] = tested on: ragweed (common ragweed, Ambrosia elatior); test: as above; settings: 0 is no effect, 100 is complete control
How it was run: as §2

corn (Zea mays) = test: Test A postemergence application, visual injury rating; settings: 0 to 100 scale, 0 no effect, 100 complete control
How it was run: as §2

kochia (Kochia scoparia) [10] = test: as above; settings: 0 to 100 scale, 0 no effect, 100 complete control
How it was run: as §2

[11] = tested on: galium (catchweed bedstraw, Galium aparine); test: as above; settings: 0 to 100 scale, 0 no effect, 100 complete control
How it was run: as §2

[12] = tested on: ryegrass, It. (Italian ryegrass, Lolium multiflorum); test: as above; settings: 0 to 100 scale, 0 no effect, 100 complete control
How it was run: as §2

[13] = tested on: blackgrass (Alopecurus myosuroides); test: as above; settings: 0 to 100 scale, 0 no effect, 100 complete control
How it was run: as §2

[14] = tested on: pigweed (Amaranthus retroflexus); test: as above; settings: 0 to 100 scale, 0 no effect, 100 complete control
How it was run: as §2

[15] = tested on: wheat (Triticum aestivum); test: as above; settings: 0 to 100 scale, 0 no effect, 100 complete control
How it was run: as §2

[16] = tested on: barnyardgrass (Echinochloa crus-galli); test: as above; settings: 0 to 100 scale, 0 no effect, 100 complete control
How it was run: as §2

[17] = tested on: foxtail, giant (giant foxtail, Setaria faberii); test: as above; settings: 0 to 100 scale, 0 no effect, 100 complete control
How it was run: as §2

[18] = tested on: ragweed (common ragweed, Ambrosia elatior); test: as above; settings: 0 to 100 scale, 0 no effect, 100 complete control
How it was run: as §2

Structure (SMILES)	Ducksalad plant response rating (0 to 100 scale, 0 is no effect, 100 is complete control) [1]	Rice plant response rating (0 to 100 scale, 0 is no effect, 100 is complete control) (rice (Oryza sativa))	Sedge, Umbrella plant response rating (0 to 100 scale, 0 is no effect, 100 is complete control) [2]	Barnyardgrass plant response rating (0 to 100 scale, 0 is no effect, 100 is complete control) [3]	Plant response rating (0 to 100 scale), Kochia (kochia (Kochia scoparia) [4]; 125 g ai/ha)	Plant response rating (0 to 100 scale), Ryegrass, It. ([5]; 125 g ai/ha)	Plant response rating (0 to 100 scale), Pigweed ([6]; 125 g ai/ha)	Plant response rating (0 to 100 scale), Barnyardgrass ([7]; 125 g ai/ha)	Plant response rating (0 to 100 scale), Foxtail, Giant ([8]; 125 g ai/ha)	Plant response rating (0 to 100 scale), Ragweed ([9]; 125 g ai/ha)	Corn plant response rating (corn (Zea mays); 125 g ai/ha)	Kochia plant response rating (kochia (Kochia scoparia) [10]; 125 g ai/ha)	Galium plant response rating ([11]; 125 g ai/ha)	Ryegrass, It. plant response rating ([12]; 125 g ai/ha)	Blackgrass plant response rating ([13]; 125 g ai/ha)	Pigweed plant response rating ([14]; 125 g ai/ha)	Wheat plant response rating ([15]; 125 g ai/ha)	Barnyardgrass plant response rating ([16]; 125 g ai/ha)	Foxtail, Giant plant response rating ([17]; 125 g ai/ha)	Ragweed plant response rating ([18]; 125 g ai/ha)	also measured
CCOC(=O)Oc1c(C)nn(C)c(=O)c1-c1c(C)sc2ncccc12 [Compound 24]	0	0	0	0	0	10	0	0	0	0	0	0	0	0	0	0	0	0	0	0	Plant response rating (0 to 100 scale), Kochia (kochia (Kochia scoparia) [4]; 500 g ai/ha): 0; Plant response rating (0 to 100 scale), Ryegrass, It. ([5]; 500 g ai/ha): 20; Plant response rating (0 to 100 scale), Pigweed ([6]; 500 g ai/ha): 0; Plant response rating (0 to 100 scale), Barnyardgrass ([7]; 500 g ai/ha): 0; Plant response rating (0 to 100 scale), Foxtail, Giant ([8]; 500 g ai/ha): 0; Plant response rating (0 to 100 scale), Ragweed ([9]; 500 g ai/ha): 0; Corn plant response rating (corn (Zea mays); 500 g ai/ha): 10; Kochia plant response rating (kochia (Kochia scoparia) [10]; 500 g ai/ha): 0; Galium plant response rating ([11]; 500 g ai/ha): 0; Ryegrass, It. plant response rating ([12]; 500 g ai/ha): 20; Blackgrass plant response rating ([13]; 500 g ai/ha): 0; Pigweed plant response rating ([14]; 500 g ai/ha): 10; Wheat plant response rating ([15]; 500 g ai/ha): 0; Barnyardgrass plant response rating ([16]; 500 g ai/ha): 0; Foxtail, Giant plant response rating ([17]; 500 g ai/ha): 0; Ragweed plant response rating ([18]; 500 g ai/ha): 0
CCC(=O)Oc1c(C)nn(C)c(=O)c1-c1cccc2cc(C)oc12 [Compound 26]	0	0	0	0	30	80	10	0	0	10	0	20	90	80	20	40	0	10	30	30	Plant response rating (0 to 100 scale), Kochia (kochia (Kochia scoparia) [4]; 31 g ai/ha): 0; Plant response rating (0 to 100 scale), Ryegrass, It. ([5]; 31 g ai/ha): 10; Plant response rating (0 to 100 scale), Pigweed ([6]; 31 g ai/ha): 0; Plant response rating (0 to 100 scale), Barnyardgrass ([7]; 31 g ai/ha): 0; Plant response rating (0 to 100 scale), Foxtail, Giant ([8]; 31 g ai/ha): 0; Plant response rating (0 to 100 scale), Ragweed ([9]; 31 g ai/ha): 0; Corn plant response rating (corn (Zea mays); 31 g ai/ha): 0; Kochia plant response rating (kochia (Kochia scoparia) [10]; 31 g ai/ha): 20; Galium plant response rating ([11]; 31 g ai/ha): 70; Ryegrass, It. plant response rating ([12]; 31 g ai/ha): 50; Blackgrass plant response rating ([13]; 31 g ai/ha): 0; Pigweed plant response rating ([14]; 31 g ai/ha): 30; Wheat plant response rating ([15]; 31 g ai/ha): 0; Barnyardgrass plant response rating ([16]; 31 g ai/ha): 0; Foxtail, Giant plant response rating ([17]; 31 g ai/ha): 0; Ragweed plant response rating ([18]; 31 g ai/ha): 0
Cc1nc2c(-c3c(O)c(C)nn(C)c3=O)cccc2s1 [Compound 27]	0	0	0	0	0	30	0	0	0	20	0	0	0	20	0	0	0	0	20	0	Plant response rating (0 to 100 scale), Kochia (kochia (Kochia scoparia) [4]; 500 g ai/ha): 0; Plant response rating (0 to 100 scale), Ryegrass, It. ([5]; 500 g ai/ha): 40; Plant response rating (0 to 100 scale), Pigweed ([6]; 500 g ai/ha): 0; Plant response rating (0 to 100 scale), Barnyardgrass ([7]; 500 g ai/ha): 0; Plant response rating (0 to 100 scale), Foxtail, Giant ([8]; 500 g ai/ha): 50; Plant response rating (0 to 100 scale), Ragweed ([9]; 500 g ai/ha): 20; Corn plant response rating (corn (Zea mays); 500 g ai/ha): 0; Kochia plant response rating (kochia (Kochia scoparia) [10]; 500 g ai/ha): 0; Galium plant response rating ([11]; 500 g ai/ha): 60; Ryegrass, It. plant response rating ([12]; 500 g ai/ha): 40; Blackgrass plant response rating ([13]; 500 g ai/ha): 30; Pigweed plant response rating ([14]; 500 g ai/ha): 0; Wheat plant response rating ([15]; 500 g ai/ha): 0; Barnyardgrass plant response rating ([16]; 500 g ai/ha): 20; Foxtail, Giant plant response rating ([17]; 500 g ai/ha): 40; Ragweed plant response rating ([18]; 500 g ai/ha): 30
